Experimental data taken from patent publication US5364944A, “Substituted benzoylbenzene-, biphenyl- and 2-oxazole- alkanoic acid compounds” (American Home Products Corporation, priority 1993, dated 1994).

Legend:
[1] = molecular target: T1, LTD4-induced contractions of isolated guinea pig trachea (Cavia porcellus, UniProt Q2NNR5); assay: In vitro isolated guinea pig trachea assay, LTD4 antagonist activity; parameters: species or system guinea pig (male Hartley); conditions: 1 × 10^-5 M
T1 construct: isolated guinea pig trachea; from tissue; host or cells: tracheal rings of male Hartley guinea pigs
T1 sequence (Q2NNR5 1-340): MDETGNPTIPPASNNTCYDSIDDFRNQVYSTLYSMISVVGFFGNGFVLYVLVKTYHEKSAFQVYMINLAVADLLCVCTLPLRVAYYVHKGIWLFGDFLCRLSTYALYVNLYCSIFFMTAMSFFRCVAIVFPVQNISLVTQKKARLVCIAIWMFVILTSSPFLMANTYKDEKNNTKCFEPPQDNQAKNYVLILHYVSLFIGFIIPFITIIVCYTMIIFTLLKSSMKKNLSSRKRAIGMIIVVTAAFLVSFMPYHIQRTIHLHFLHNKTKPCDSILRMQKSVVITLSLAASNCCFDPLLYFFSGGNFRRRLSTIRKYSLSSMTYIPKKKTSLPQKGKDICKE
Description: The LTD4 antagonist activity of the compounds of the invention is assessed in the in vitro isolated guinea pig trachea assay. This assay is carried out as follows: Male Hartley guinea pigs (350-400 g) are euthanized by a blow to the head, the neck is opened and the trachea removed. The trachea is maintained in aerated physiological salt solution, cleared of connective tissue and fat and cut into rings approximately 2 mm in width (usually containing two cartilaginous segments per ring). Two pieces of silk suture are then passed through the lumen of the tracheal ting and are tied around the cartilage, one on each side of the trachealis muscle. The tracheal ring is suspended between a glass hook and a force displacement transducer in a 10 ml organ bath for measurement of isometric tension. […] The tracheal rings are maintained at 2 g resting tension and equilibrated for 45 minutes (with frequent washing and readjustment of resting tension). The tracheal […] contracted by the addition of carbachol (3×10^-6 M), to determine tissue responsiveness and establish a reference contraction. On attainment of a stable level of contraction (approximately 30 minutes), the tissues are washed several times until baseline tension has been restored and the re-equilibrated for 30 minutes. The tissues are then incubated for 45 minutes with a test antiagonist (either 1×10^-6 M or 1×10^-5 M) or 10 μl of an appropriate solvent control (control, nontreated). One tissue in each group serves as the control. Twenty minutes prior to the construction of the LTD4 cumulative concentration-response curve, L-[…]×10^-2 M final bath concentration) is added to inhibit bioconversion of LTD4 to LTE4. Only one LTD4 concentration-response curve is constructed in each tissue. All responses to LTD4 in an individual tissue are measured as a percentage of the reference contraction of that tissue to carbachol. LTD4 antagonist activity is determined by comparison of the concentration response curves of LTD4 in the presence and absence of antagonist. Assessment of the relative rightward shift of the antagonist treated curve relative to the solvent (control) treated tissue is calculated as a concentration ratio (Eq. A) and used in subsequent calculations to derive an antagonist pKB value (Eqs. B and C). […] If a compound is found to be active and/or depress the maximal response to LTD4, then a range of concentrations of the test compound should be used generating multiple concentration ratios which would then be used to perform a Schild analysis, and determination of a pA2 value where appropriate.

[2] = test system: biosynthesis of LTB4 by isolated human neutrophils; assay: Inhibition of LTB4 biosynthesis by isolated human neutrophils (PMN); type: cell-based; conditions: Neutrophil, A23187 stimulated human PMN, read-out: % Inhibition of LTB4 Synthesis
Description: The ability of the compounds of the invention to inhibit the biosynthesis of LTB4 by isolated human neutrophils is evaluated in the following assay, which is carried out in this manner.
A leukocyte enriched blood sample obtained from a healthy donor is procured by leukophoresis using a Haemonetics model 30+ blood processor (Biological Specialties, Inc., Lansdale, Pa.). The top "platelet-rich" layer is removed after a low speed spin (35×g, 15 min, 25° C.) of the sample. The remaining cell suspension is centrigued (400×g, 10 min, 25° C.) to sediment the remaining cells. The supernatant is discarded and the cell pellet resuspended in 120 ml HBSS (without Ca^++ /Mg++). The cell suspension is subjected to ficoll-hypaque sedimentation (Histopaque 1077, 400×g, 30 min, 25° C.). Contaminating erythrocytes are lysed by hypotonic shock (1 min). The cells are then washed once with 40 ml of HBSS and resuspended with HBS S (without Ca^++ /Mg^++) to a concentration of 2.5×10^7 cells/ml for further use. Greater than 95% purity is obtained as assessed by microscopic examination.
One ml of human PMN (2.5×10^7 cells/ml) is incubated with vehicle or drugs (10 μl) for 10 min at 30° C. After preincubation, an equal volume of HBSS (1 ml) containing 2.4 mM CaCl2, 6 μM calcium ionophore A23187 and 50 μCi[^3 H]-acetate is then incubated at 30° C. for 15 minutes. An aliquot (100 μl) of the reaction mixture is taken out and mixed with 900 μl of 15% ethanol. LTB4 is extracted by using solid phase extraction on reverse phase C18 columns to remove excess [^3 H]-acetate and PAF. The C18 column is prewashed once with 2 ml of ethanol and water. The sample aliquot is acidified with 0.1 N HCl to pH3 before applying to the column. The column is then washed with 2 ml of water followed by 2 ml of 15% ethanol and 2 ml of petroleum ether to remove excess labeled acetate. The sample is eluted with 2 ml of ethyl acetate. The collected samples are dried with nitrogen and resuspended in 0.5 ml RIA buffer. The quantity of LTB4 in the sample is obtained from RIA determination.
Data presented are the mean +/- s.d. of the values relative to control A23187 stimulated cells for each experiment assayed in triplicate. Percent inhibition when used is calculated as:
% Inhibition=100-[(×.div.Control )×100]
Dose response analysis is performed by non-linear regression analysis for curve fitting and IC50 determination.

Q: Which Kb [1] does the source give for `CC(C(=O)N(C)O)c1ccc(-c2ccc(OCc3csc(-c4ccccc4)n3)cc2)cc1` (stereo not drawn) [Example 21, N-Hydroxy-N,α-dimethyl-4'-[(2-phenylthiazol-4-yl)methoxy][1,1'-biphenyl]-4-acetamide] here?
A: > 10 µM

Q: What about the inhibition at 2.5 µM [2] of the same molecule?
A: 91.2%
